Experimental data: PMC10299909, “Structural basis of efficacy-driven ligand selectivity at GPCRs” (Nature Chemical Biology, 2023)
Substitutions are numbered along the chain they refer to.

Experiments:
M3 mAChR [1] = biological target: T1, M3 mAChR (Homo sapiens, UniProt P20309); experiment: whole-cell [3H]NMS radioligand competition binding, CHO FlpIn cells; conditions: first set of experiments, read-out: pKI (radioligand binding competition with [3H]NMS) (converted)
T1 construct: expressed in transfected cells; host or cells: CHO FlpIn
T1 sequence (P20309 whole entry): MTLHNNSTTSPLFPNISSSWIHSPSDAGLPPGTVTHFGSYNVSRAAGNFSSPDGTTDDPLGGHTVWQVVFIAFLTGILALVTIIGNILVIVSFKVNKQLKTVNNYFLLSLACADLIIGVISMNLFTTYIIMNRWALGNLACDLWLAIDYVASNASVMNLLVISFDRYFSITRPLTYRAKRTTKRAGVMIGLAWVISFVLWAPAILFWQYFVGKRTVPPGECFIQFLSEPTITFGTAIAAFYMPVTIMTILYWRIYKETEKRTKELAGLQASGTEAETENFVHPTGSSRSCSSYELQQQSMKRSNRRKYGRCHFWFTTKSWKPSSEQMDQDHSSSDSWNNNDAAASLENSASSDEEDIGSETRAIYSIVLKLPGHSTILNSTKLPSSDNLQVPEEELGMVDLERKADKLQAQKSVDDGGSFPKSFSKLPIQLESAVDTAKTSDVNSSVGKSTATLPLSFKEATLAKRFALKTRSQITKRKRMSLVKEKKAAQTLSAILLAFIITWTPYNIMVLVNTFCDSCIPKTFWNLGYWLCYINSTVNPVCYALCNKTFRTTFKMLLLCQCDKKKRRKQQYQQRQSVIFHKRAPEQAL

M4 mAChR [2] = biological target: T2, M4 mAChR (Homo sapiens, UniProt P08173); experiment: as above; conditions: read-out: Affinities M2 M4: binding normalised to Buffer only-TB = 100
T2 construct: expressed in transfected cells; host or cells: CHO FlpIn
T2 sequence (P08173 1-479): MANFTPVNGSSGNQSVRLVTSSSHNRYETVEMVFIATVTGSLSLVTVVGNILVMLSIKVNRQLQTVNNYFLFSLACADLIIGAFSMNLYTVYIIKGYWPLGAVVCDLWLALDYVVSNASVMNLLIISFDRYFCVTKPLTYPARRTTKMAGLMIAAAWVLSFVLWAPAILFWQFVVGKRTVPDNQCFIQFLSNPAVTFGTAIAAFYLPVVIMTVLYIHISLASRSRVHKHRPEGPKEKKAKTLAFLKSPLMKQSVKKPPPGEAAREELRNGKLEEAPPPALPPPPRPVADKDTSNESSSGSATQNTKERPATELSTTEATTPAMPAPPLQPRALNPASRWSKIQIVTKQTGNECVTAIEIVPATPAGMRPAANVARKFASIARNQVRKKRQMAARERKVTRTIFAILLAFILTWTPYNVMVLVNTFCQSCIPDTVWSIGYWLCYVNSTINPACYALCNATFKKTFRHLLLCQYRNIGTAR

M3 mAChR [3] = biological target: T1, M3 mAChR; experiment: pERK1/pERK2 signaling assay (AlphaScreen SureFire), CHO FlpIn cells; type: cell-based
M4 mAChR [4] = biological target: T2, M4 mAChR; experiment: as above; type: cell-based
M5 mAChR = biological target: T3, M5 mAChR (Homo sapiens, UniProt P08912); experiment: as above; type: cell-based; conditions: first set of experiments
T3 construct: expressed in transfected cells; host or cells: CHO FlpIn
T3 sequence (P08912 1-532): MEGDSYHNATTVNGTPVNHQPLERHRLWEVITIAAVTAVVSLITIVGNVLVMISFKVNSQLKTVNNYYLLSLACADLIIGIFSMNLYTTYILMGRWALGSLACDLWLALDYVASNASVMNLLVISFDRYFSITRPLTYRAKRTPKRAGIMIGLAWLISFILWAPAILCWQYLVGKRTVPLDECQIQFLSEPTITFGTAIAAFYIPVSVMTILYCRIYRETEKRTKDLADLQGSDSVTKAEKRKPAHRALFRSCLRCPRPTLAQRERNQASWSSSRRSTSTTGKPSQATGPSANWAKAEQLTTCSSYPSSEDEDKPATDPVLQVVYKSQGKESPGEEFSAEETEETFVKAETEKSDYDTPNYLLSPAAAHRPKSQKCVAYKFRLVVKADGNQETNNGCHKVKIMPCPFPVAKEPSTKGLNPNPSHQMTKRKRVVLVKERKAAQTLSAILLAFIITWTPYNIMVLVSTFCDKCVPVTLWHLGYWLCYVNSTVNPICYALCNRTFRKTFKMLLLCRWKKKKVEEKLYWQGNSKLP

M4 L190F mAChR [5] = biological target: T4, M4 L190F mAChR (Homo sapiens, UniProt P08173, L190F); experiment: as above; type: cell-based; conditions: M4(L190F); second set of experiments
T4 construct: expressed in transfected cells; host or cells: CHO FlpIn
T4 sequence (P08173 1-479 L190F): T2 sequence (P08173 1-479) with L190F

M2 WT mAChR = biological target: T5, M2 WT mAChR (Homo sapiens, UniProt P08172); experiment: BRET TRUPATH GoA activation (G-protein dissociation) assay; type: cell-based; conditions: M2 WT; T=[…]
T5 construct: expressed in transfected cells; host or cells: CHO FlpIn
T5 sequence (P08172 1-466): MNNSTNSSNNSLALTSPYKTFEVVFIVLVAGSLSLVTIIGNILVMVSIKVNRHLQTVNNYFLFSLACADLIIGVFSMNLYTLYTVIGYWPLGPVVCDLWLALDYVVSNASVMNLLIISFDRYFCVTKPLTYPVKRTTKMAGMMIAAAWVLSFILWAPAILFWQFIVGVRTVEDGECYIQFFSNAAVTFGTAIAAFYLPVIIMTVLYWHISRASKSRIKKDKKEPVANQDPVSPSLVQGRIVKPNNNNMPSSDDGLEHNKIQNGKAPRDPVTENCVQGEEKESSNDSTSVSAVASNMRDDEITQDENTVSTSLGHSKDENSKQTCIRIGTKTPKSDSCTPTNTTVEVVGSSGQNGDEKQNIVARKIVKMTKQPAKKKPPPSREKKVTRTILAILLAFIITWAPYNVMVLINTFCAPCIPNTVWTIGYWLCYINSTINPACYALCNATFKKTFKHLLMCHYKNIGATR
Experimental: (§1) Cells were seeded at 20,000 cells per well into 96-well flat-bottom white culture plates and grown for 4 h. Plasmid DNA (20 ng per well of Gα, Gβ and Gγ at a 1:1:1 ratio) and linear polyethylenimine were added to the cells in a 1:6 ratio. To allow for protein expression, cells were then incubated (37 °C, 5% CO2) for 48 h before the measurement of agonist activity. […] The initial 4 min of measurement was considered baseline counts before ligand or vehicle addition, with BRET readings every 2 min for a further 8 min following drug or vehicle addition.
(§2) Concentration–response curves were fitted to a three-parameter logistic equation to derive ligand potency (pEC50) estimates.
(§3) Data was analyzed using the operational model of agonism to quantify the efficacy (Logτ) of each agonist in each cell line, and subsequently corrected for receptor expression level differences between cell lines (Logτc), using the M2 WT as reference. […] Source data

M4 L190F mAChR [6] = biological target: T4, M4 L190F mAChR; experiment: as above; type: cell-based; conditions: T=[…]
Experimental: as §1, §2, §3

M4 WT mAChR = biological target: T6, M4 WT mAChR (Homo sapiens, UniProt P08173); experiment: as above; type: cell-based; conditions: T=[…]
T6 construct: expressed in transfected cells; host or cells: CHO FlpIn
T6 sequence (P08173 1-479): T2 sequence (P08173 1-479)

M2 mAChR = biological target: T7, M2 mAChR (Homo sapiens, UniProt P08172); experiment: whole-cell [3H]NMS radioligand competition binding, CHO FlpIn cells
T7 sequence (P08172 1-466): T5 sequence (P08172 1-466)

CCCCCCOc1nsnc1C1=CCCN(C)C1 [Xanomeline, xanomeline]
Ki (M3 mAChR [1]): 100 nM | remaining binding at 10 µM (M4 mAChR [2]; M4, Log[Ligand] (M) -5, individual experiments): 1.95% | remaining binding at 1 µM (M4 mAChR [2]; M4, Log[Ligand] (M) -6, individual experiments): 18.6% | remaining binding at 0.1 µM (M4 mAChR [2]; M4, Log[Ligand] (M) -7, individual experiments): 88% | remaining binding at 0.001 µM (M4 mAChR [2]; M4, Log[Ligand] (M) -9, individual experiments): 105% | Emax pERK1/2 (M3 mAChR [3]): 62 ± 6 % FBS stimulation | EC50 (M3 mAChR [3]; M3, first set of experiments, read-out: pEC50 pERK1/2 (converted)): 117 nM | Emax pERK1/2 (M4 mAChR [4]; first set of experiments (top 5 rows)): 92 ± 4 % FBS stimulation | Emax pERK1/2 (M4 mAChR [4]; second set of experiments (bottom 4 rows)): 101 ± 3 % FBS stimulation | Emax pERK1/2 (M5 mAChR): 80 ± 8 % FBS stimulation | Emax pERK1/2 (M4 L190F mAChR [5]): 90 ± 8 % FBS stimulation | Log(Tau) corrected for receptor expression (Logτc), GoA activation (M2 WT mAChR): -0.65 | Log(Tau) corrected for receptor expression (Logτc), GoA activation (M4 L190F mAChR [6]): -0.36 | activation at 1000 µM (M4 L190F mAChR [6]; […], Log[Ligand] (M) -3, individual experiments, read-out: GoA activation response): 3.92% | activation at 10 µM (M4 L190F mAChR [6]; […], Log[Ligand] (M) -5, individual experiments, read-out: GoA activation response): 49% | Log(Tau) corrected for receptor expression (Logτc), GoA activation (M4 WT mAChR): 0.38 | remaining binding at 0.1 µM (M2 mAChR; read-out: Affinities M2 M4: binding normalised to Buffer only-TB = 100, M2, Log[Ligand] (M) -7, individual experiments): 83.3% | remaining binding at 0.01 µM (M2 mAChR; read-out: Affinities M2 M4: binding normalised to Buffer only-TB = 100, M2, Log[Ligand] (M) -8, individual experiments): 90.2% | remaining binding at 0.0001 µM (M2 mAChR; read-out: Affinities M2 M4: binding normalised to Buffer only-TB = 100, M2, Log[Ligand] (M) -10, individual experiments): 101%
